According to ChEMBL document CHEMBL1129277, “Nonpeptidal P2 ligands for HIV protease inhibitors: structure-based design, synthesis, and biological evaluation” (J Med Chem, 1996):
Values after ≈ are worked out from the molar mass of the structure shown.

Columns and labels:
[1] = tested on: Human immunodeficiency virus 1; test: Inhibition of HIV-1 replication in infected MT-4 human T-lymphoid cells.; assay type: functional, organism-based; settings: Human immunodeficiency virus 1, T-lymphoid
[2] = target: Human immunodeficiency virus type 1 protease (Human immunodeficiency virus 1) (UniProt Q72874); test: Inhibitory activity against HIV-1 protease enzyme
[3] = Aqueous solubility in phosphate buffer of pH 7.4; assay type: physicochemical

Row | SMILES | IC50 [1] | IC95 [2] | solubility [3]
1 | CC(C)(C)NC(=O)[C@@H]1C[C@@H]2CCCC[C@@H]2CN1C[C@@H](O)[C@H](Cc1ccccc1)NC(=O)O[C@@H]1CCOC1 | 694 nM | > 800 nM | 
2 | CC(C)(C)NC(=O)[C@@H]1C[C@@H]2CCCC[C@@H]2CN1C[C@@H](O)[C@H](Cc1ccccc1)NC(=O)O[C@H]1CO[C@H]2OCC[C@H]21 | 1.8 nM |  | 235 µg/mL (≈ 421 µM)
3 | CC(C)(C)NC(=O)[C@@H]1C[C@@H]2CCCC[C@@H]2CN1C[C@@H](O)[C@H](Cc1ccccc1)NC(=O)O[C@H]1CO[C@H]2OCCC[C@H]21 | 4.2 nM | 100 nM | 
4 | C[C@@H]1C[C@@H]2[C@@H](OC[C@@H]2OC(=O)N[C@@H](Cc2ccccc2)[C@H](O)CN2C[C@H]3CCCC[C@H]3C[C@H]2C(=O)NC(C)(C)C)O1 | 4.1 nM | 200 nM | 
5 | CC(C)(C)NC(=O)[C@@H]1C[C@@H]2CCCC[C@@H]2CN1C[C@@H](O)[C@H](Cc1ccccc1)NC(=O)O[C@]12CCO[C@H]1OCC2 | 410 nM | > 200 nM | 
6 | CC(C)(C)NC(=O)[C@@H]1C[C@@H]2CCCC[C@@H]2CN1C[C@@H](O)[C@H](Cc1ccccc1)NC(=O)O[C@@H]1CO[C@@H]2CCO[C@@H]21 | > 3000 nM | > 200 nM | 
7 | COC[C@H]1[C@@H](OC(=O)N[C@@H](Cc2ccccc2)[C@H](O)CN2C[C@H]3CCCC[C@H]3C[C@H]2C(=O)NC(C)(C)C)CCS1(=O)=O | 23.8 nM |  | 
8 | CC(C)(C)NC(=O)[C@@H]1C[C@@H]2CCCC[C@@H]2CN1C[C@@H](O)[C@H](Cc1ccccc1)NC(=O)O[C@H]1CCS(=O)(=O)C1 | 76 nM | 364 nM | 
9 | CC(C)(C)NC(=O)[C@@H]1C[C@@H]2CCCC[C@@H]2CN1C[C@@H](O)[C@H](Cc1ccccc1)NC(=O)O[C@H]1CC[C@H]2OCC[C@@H]12 | 17 nM |  | 
10 | CC(C)(C)NC(=O)[C@@H]1C[C@@H]2CCCC[C@@H]2CN1C[C@@H](O)[C@H](Cc1ccccc1)NC(=O)[C@H](CC(N)=O)NC(=O)c1ccc2ccccc2n1 [SAQUINAVIR] |  |  | 10 µg/mL (≈ 14.9 µM)
11 | CC(C)(C)NC(=O)[C@@H]1C[C@@H]2CCCC[C@@H]2CN1C[C@@H](O)[C@H](Cc1ccccc1)NC(=O)O[C@H]1CCOC1 | 132 nM |  | 150 µg/mL (≈ 291 µM)
12 | COC[C@@H]1SCC[C@@H]1OC(=O)N[C@@H](Cc1ccccc1)[C@H](O)CN1C[C@H]2CCCC[C@H]2C[C@H]1C(=O)NC(C)(C)C | 19.7 nM |  | 
13 | CC(C)(C)NC(=O)[C@@H]1C[C@@H]2CCCC[C@@H]2CN1C[C@@H](O)[C@H](Cc1ccccc1)NC(=O)O[C@H]1CO[C@@]2(C)OCC[C@@H]12 | 18.1 nM | > 200 nM | 
14 | CC(C)(C)NC(=O)[C@@H]1C[C@@H]2CCCC[C@@H]2CN1C[C@@H](O)[C@H](Cc1ccccc1)NC(=O)O[C@H]1CO[C@H]2COC[C@H]21 | 1700 nM |  | 
15 | CC(C)(C)NC(=O)[C@@H]1C[C@@H]2CCCC[C@@H]2CN1C[C@@H](O)[C@H](Cc1ccccc1)NC(=O)O[C@@H]1CO[C@@H]2OCC[C@@H]21 | 6.4 nM |  | 130 µg/mL (≈ 233 µM)
16 | CC(C)(C)NC(=O)[C@@H]1C[C@@H]2CCCC[C@@H]2CN1C[C@@H](O)[C@H](Cc1ccccc1)NC(=O)O[C@@H]1CO[C@@H]2OCCC[C@@H]21 | 1.2 nM | 50 nM | 107 µg/mL (≈ 187 µM)
17 | CC(C)(C)NC(=O)[C@@H]1C[C@@H]2CCCC[C@@H]2CN1C[C@@H](O)[C@H](Cc1ccccc1)NC(=O)O[C@H]1CO[C@H]2CCC[C@H]21 | 190 nM |  | 
18 | CC(C)(C)NC(=O)[C@@H]1C[C@@H]2CCCC[C@@H]2CN1C[C@@H](O)[C@H](Cc1ccccc1)NC(=O)O[C@H]1CCSC1 | 132 nM |  | 
19 | C[C@H]1C[C@@H]2[C@@H](OC[C@@H]2OC(=O)N[C@@H](Cc2ccccc2)[C@H](O)CN2C[C@H]3CCCC[C@H]3C[C@H]2C(=O)NC(C)(C)C)O1 | 27.1 nM | 200 nM | 
